The text below walks through data of patent US9844521B2, “Pharmaceutical composition comprising ginger extract or shogaol” (UNIVERSITY-INDUSTRY COOPERATION GROUP OF KYUNG HEE …, priority 2008, dated 2017).

For experiment [1], the system named is rat primary mesencephalic dopaminergic cells. Nature of the experiment: Protection of dopamine cells against 6-OHDA neurotoxicity (TH immunohistochemistry). It is filed as cell-based. As to conditions: 0.01 μM, 10 μM 6-OHDA for 18 hours; 6-OHDA group 34.00±5.77% of the control. The method, then: Female Sprague-Dawley rats (2-week old) were used, and shogaol was obtained from WAKO Company (Japan).
Fetal mesencephalon tissues of Sprague-Dawley rats […] were desquamated, and mechanically dissociated by using a forcept. The tissues were treated with trypsin and the number of cells was counted, and the cells were seeded on a cover slip coated with poly-L-lysine (PLL), and then proliferated in an incubator including 5% CO2 and 95% air at a temperature of 37 °C for 5 days. A fetal bovine serum (FBS)-free media was treated with 0.01 μM or 0.1 μM of shogaol after the shogaol was diluted, or the ginger extract (the ethanol extract, the hexane fraction, the ethyl acetate fraction, the butanolfraction, and the water fraction prepared according to Example 1) after the ginger extract was diluted. […]
Cells immobilized by using 4% PFA were washed with PBS and then, dehydrated with 1% hydrogen peroxide for 15 minutes. […] After the color-producing using DAB, a cover slip was separated and then mounted on a slide by using a gel mount and the number of cells was counted.
Cells were color-produced by immunohistochemistry in the same manner as Experimental Example 3-1, and the number of cells was counted and the results are shown in FIGS. 8 and 9.

The test system of experiment [2] is 2-vessel occlusion cerebral ischemia model. The experiment is described as follows: 2-vessel occlusion cerebral ischemia model, neurons in CA1 of hippocampus. Format: in vivo, mouse. As to conditions: 10 mg/kg in 10% tween 80, immediately after 2VO then once per day for 3 days. The method, then:
7-week old C57BL/6 based male mice (19-22 g) were obtained and nurtured in an animal laboratory at Kyunghee University Graduate School of East-West Medicine Science for one week or more for adaptation. Water and feed were freely supplied, and the temperature (22±2[…]), humidity (53±3%), and a cycle of brightness and darkness (12 hours) were automatically controlled.
Mice were divided into three groups, each of which consisted of 10 mice. Anesthesia was induced in an anesthetic gas (O2: 30%, N2O: 70%, and isoflurane: 2.0%) chamber, and mice of the respective groups were located on an operating table with their backs on the operating table. The skin of each mouse was cut upward by about 1.5 cm from a point where the upper limbs and an intermediate line meet, and then, facing common carotid arteries were exposed without damage of tissues. Tissues and nerves attached to the carotid arteries were dissociated and occlusion was performed thereon by using an aneurism clip for 25 minutes. In this regard, the temperature of the mice was measured by using a rectal thermometer and maintained at 37±0.5 □.
A sham control refers to a group obtained as described above except for the occlusion of the common carotid arteries. Medicine administration was performed immediately after a 2VO step, and thereafter, performed once per day for 3 days. […]

Molecules are shown by their SMILES.

With `CCCCC/C=C/C(=O)CCc1ccc(O)c(OC)c1` [shogaol, (E)-1-(4-hydroxy-3-methoxyphenyl)dec-4-en-3-one], the “number of dopamine positive cells” value in experiment [1] was 57.25±5.65%. Further, the “neuron apoptosis suppression efficacy in CA1” value in experiment [2] is given as 29.5±15.4 % of the 2VO step group.
